Test results reported in patent US20250002473A1, “QUINOXALINE DERIVED SULFONAMIDES WITH EGFR DEGRADATION ACTIVITIES AND THEIR USES THEREOF” (Accutar Biotechnology Inc., priority 2023, published 2025).
Like-named read-outs stand apart in the source and are kept apart here.

Key:
Assay type in all cases: cell-based
HCC827_LTC = assay: Cell growth inhibition assay (CellTiter-Glo), HCC827_LTC; settings: 72 h; Table 8; HCC827 expressing human EGFR L858R/T790M/C797S, endogenous EGFR knockout, three days
Protocol: (§1) HCC827_LTC and HCC827_DTC cell lines were generated by first transducing HCC827 cells (ATCC) with lentiviral particles expressing codon-optimized human EGFR L858R/T790M/C797S (LTC) mutant or Del19/T790M/C797S (DTC) mutant, and then selecting under 5 μg/ml puromycin treatment for a week. The endogenous EGFR alleles were subsequently abolished using the Alt-R™ CRISPR-Cas9 technology (Integrated DNA Technologies). Single clones of HCC827_LTC and HCC827_DTC were selected and validated for endogenous EGFR knockout using Sanger sequencing.
(§2) Cells were seeded in a 96-well plate (Corning 3610) with 90 μL of culture medium per well, and plates were incubated at 37° C. overnight. A 1,000× DMSO stock solution of the desired compound was prepared the following day. A compound dilution plate was prepared by diluting the stock solution 1:100 in the corresponding cell culture medium, 10 μL of the diluted compound solution was added to each 96-well plate well containing the seeded cells. Then, the cells were cultured at 37° C. for three days following compound treatment, 100 μL of CellTiter-Glo reagents (Promega G7573) was added to each well of the 96-well plate. The content of the wells was mixed by shaking continuously for 10 min, and luminescence was measured using Envision (PerkinElmer). The data were analyzed with GraphPad Prism 9 (see FIG. 50).
(§3) Table 6, Table 7, and Table 8 list the cell growth inhibition results, where Gls0 represents the compound concentration to cause 50% cell growth inhibition in comparison with DMSO.

NCI-H2073 = assay: Cell growth inhibition assay (CellTiter-Glo), NCI-H2073; settings: 72 h; Table 8; NCI-H2073 cells, three days
Protocol: as §2, with “Then, the cells were cultured at 37° C. for three days following compound treatment, 100 μL of CellTiter-Glo reagents (Promega G7573) was added to each well of the 96-well plate.” left out
as §3

A431 = assay: Cell growth inhibition assay (CellTiter-Glo), A431; settings: Homo sapiens, A-431, 72 h, A431 cells, three days, read-out: A431 GI50
Summary of the method: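 Cells were plated in 96-well plates (Corning 3610) at 90 μL of culture medium per well and incubated overnight at 37° C. The next day, a 1,000× DMSO compound stock was diluted 1:100 in cell culture medium, and 10 μL was added per well. After shaking for 10 min, luminescence was read on an Envision (PerkinElmer) reader.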

BaF3_ASV = assay: Cell growth inhibition assay (CellTiter-Glo), BaF3_ASV; settings: 72 h; Table 6; BaF3_ASV cells, three days, CellTiter-Glo; read-out: BaF3_ASV GI50
BaF3_DTC = assay: Cell growth inhibition assay (CellTiter-Glo), BaF3_DTC; settings: 72 h; Table 6; BaF3_DTC cells, three days, CellTiter-Glo; read-out: BaF3_DTC GI50
[1] = biological target: T1, BaF3_ASV (EGFR_A776inASV) (Homo sapiens, UniProt P00533, DUP767-769); assay: EGFR degradation assay (western blot), BaF3_ASV cells; settings: BaF3_ASV cells, compounds 24 h, western blot; read-out: BaF3_ASV DC50
T1 construct: expressed in transfected cells; host or cells: Ba/F3 (engineered)
T1 sequence (P00533 with tags, fused parts or gaps DUP767-769): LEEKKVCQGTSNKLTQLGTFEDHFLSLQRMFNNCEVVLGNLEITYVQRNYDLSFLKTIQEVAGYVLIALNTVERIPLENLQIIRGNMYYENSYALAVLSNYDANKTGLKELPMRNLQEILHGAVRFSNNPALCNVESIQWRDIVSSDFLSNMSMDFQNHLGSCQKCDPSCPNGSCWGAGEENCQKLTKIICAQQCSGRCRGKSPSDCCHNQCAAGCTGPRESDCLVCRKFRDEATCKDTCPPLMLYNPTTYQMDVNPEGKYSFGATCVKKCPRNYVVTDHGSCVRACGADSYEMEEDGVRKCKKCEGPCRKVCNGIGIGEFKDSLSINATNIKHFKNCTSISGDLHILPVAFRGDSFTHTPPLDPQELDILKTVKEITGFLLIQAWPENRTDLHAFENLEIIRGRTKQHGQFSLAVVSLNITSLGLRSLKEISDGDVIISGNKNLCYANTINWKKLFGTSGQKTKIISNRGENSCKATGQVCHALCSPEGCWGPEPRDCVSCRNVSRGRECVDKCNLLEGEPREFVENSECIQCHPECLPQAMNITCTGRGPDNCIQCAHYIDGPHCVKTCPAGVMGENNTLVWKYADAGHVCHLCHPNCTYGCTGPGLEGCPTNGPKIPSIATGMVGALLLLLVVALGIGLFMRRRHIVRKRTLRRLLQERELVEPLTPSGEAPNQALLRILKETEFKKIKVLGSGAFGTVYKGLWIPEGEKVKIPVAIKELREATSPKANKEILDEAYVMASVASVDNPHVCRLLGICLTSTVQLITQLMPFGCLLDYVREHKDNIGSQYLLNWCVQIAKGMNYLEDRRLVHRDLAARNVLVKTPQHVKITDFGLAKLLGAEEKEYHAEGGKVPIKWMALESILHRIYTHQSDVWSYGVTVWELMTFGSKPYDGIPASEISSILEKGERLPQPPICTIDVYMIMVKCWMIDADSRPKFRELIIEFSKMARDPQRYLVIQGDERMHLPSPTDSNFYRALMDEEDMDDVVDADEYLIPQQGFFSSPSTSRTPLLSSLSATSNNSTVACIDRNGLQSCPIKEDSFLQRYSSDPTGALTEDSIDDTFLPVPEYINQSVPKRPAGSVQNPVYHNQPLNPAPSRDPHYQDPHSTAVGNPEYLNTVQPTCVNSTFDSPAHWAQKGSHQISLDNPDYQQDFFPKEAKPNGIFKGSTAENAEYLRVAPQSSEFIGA
Summary of the method: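 Cells seeded overnight, then exposed to compounds for 24 h; lysates run on western blot, EGFR probed with tubulin loading control and fluorescent secondary detection. DC50 = concentration giving 50% EGFR degradation.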

HCC827 = assay: Cell growth inhibition assay (CellTiter-Glo), HCC827; settings: Homo sapiens, 72 h, Table 8, HCC827 cells, three days
Protocol: as §1, §2, §3

HCC827_DTC = assay: Cell growth inhibition assay (CellTiter-Glo), HCC827_DTC; settings: 72 h; Table 8; HCC827 expressing human EGFR Del19/T790M/C797S, endogenous EGFR knockout, three days
Protocol: as §1, §2, §3

Row | Structure (SMILES) | GI50 (HCC827_LTC) [nM] | GI50 (NCI-H2073) [nM] | GI50 (A431; Table 6, CellTiter-Glo) [nM] | GI50 (A431; Table 8) [nM] | GI50 (BaF3_ASV) [nM] | GI50 (BaF3_DTC) [nM] | DC50 [1] [nM] | GI50 (HCC827) [nM] | GI50 (HCC827_DTC) [nM]
1 | CCn1c(=O)n(C2CCC(=O)NC2=O)c2cccc(CCN3CCN(C4CCN(c5cc(OC)c(Nc6ncc(Br)c(Nc7ccc8nccnc8c7NS(C)(=O)=O)n6)cc5-c5cnn(C)c5)CC4)CC3)c21 (centres unmarked) [Compound 28, N-(6-((5-bromo-2-((4-(4-(4-(2-(1-(2,6-dioxopiperidin-3-yl)-3-ethyl-2-oxo-2,3-dihydro-1H-benzo[d]imidazol-4-yl)ethyl)piperazin-1-yl)piperidin-1-yl)-2-methoxy-5-(1-methyl-1H-pyrazol-4-yl)phenyl)amino)pyrimidin-4-yl)amino)quinoxalin-5-yl)methanesulfonamide] | 1.03 | 340 | 271 | 150 | 56.3 | 15.8 | 93.6 | 0.52 | 4.42
2 | COc1cc(N2CCC(N3CCN(CCc4ccc(NC5CCC(=O)NC5=O)cc4)CC3)CC2)c(-c2cnn(C)c2)cc1Nc1ncc(Br)c(Nc2ccc3nccnc3c2NS(C)(=O)=O)n1 (centres unmarked) [Compound 78, N-(6-((5-bromo-2-((4-(4-(4-(4-((2,6-dioxopiperidin-3-yl)amino)phenethyl)piperazin-1-yl)piperidin-1-yl)-2-methoxy-5-(1-methyl-1H-pyrazol-4-yl)phenyl)amino)pyrimidin-4-yl)amino)quinoxalin-5-yl)methanesulfonamide] | 1.81 | 403 |  | 436 |  |  |  | 1 | 1.96
3 | COc1cc(N2CCC(N3CCN(CC4CCN(c5ccc6c(c5)C(=O)N(C5CCC(=O)NC5=O)C6=O)CC4)CC3)CC2)c(-c2cnn(C)c2)cc1Nc1ncc(Br)c(Nc2ccc3nccnc3c2NS(C)(=O)=O)n1 (centres unmarked) [Compound 85, N-(6-((5-bromo-2-((4-(4-(4-((1-(2-(2,6-dioxopiperidin-3-yl)-1,3-dioxoisoindolin-5-yl)piperidin-4-yl)methyl)piperazin-1-yl)piperidin-1-yl)-2-methoxy-5-(1-methyl-1H-pyrazol-4-yl)phenyl)amino)pyrimidin-4-yl)amino)quinoxalin-5-yl)methanesulfonamide] | 3.57 | > 3000 |  | > 3000 |  |  |  | 2.72 | 7.7
4 | COc1cc(N2CCN(C(=O)CN3CCN(c4ccc(NC5CCC(=O)NC5=O)cc4)CC3)CC2)c(-c2cnn(C)c2)cc1Nc1ncc(Br)c(Nc2ccc3nccnc3c2NS(C)(=O)=O)n1 (centres unmarked) [Compound 80, N-(6-((5-bromo-2-((4-(4-(2-(4-(4-((2,6-dioxopiperidin-3-yl)amino)phenyl)piperazin-1-yl)acetyl)piperazin-1-yl)-2-methoxy-5-(1-methyl-1H-pyrazol-4-yl)phenyl)amino)pyrimidin-4-yl)amino)quinoxalin-5-yl)methanesulfonamide] | 11 | 721 |  | 389 |  |  |  | 6.81 | 79.4
5 | COc1cc(N2CCC(N3CCN(CCc4cc(F)c(C5CCC(=O)NC5=O)c(F)c4)CC3)CC2)c(-c2cnn(C)c2)cc1Nc1ncc(Br)c(Nc2ccc3nccnc3c2NS(C)(=O)=O)n1 (centres unmarked) [Compound 70, N-(6-((5-bromo-2-((4-(4-(4-(4-(2,6-dioxopiperidin-3-yl)-3,5-difluorophenethyl)piperazin-1-yl)piperidin-1-yl)-2-methoxy-5-(1-methyl-1H-pyrazol-4-yl)phenyl)amino)pyrimidin-4-yl)amino)quinoxalin-5-yl)methanesulfonamide] | 0.45 | 134 |  | 160 |  |  |  | 0.96 | 1.53
